The subject of test [1] is colon cancer cell line SW460. Put plainly: MTT assay of cellular proliferation, SW460. In kind it is cell-based. The conditions noted are these: Homo sapiens, SW480; read-out: EC50: Concentration that inhibits 50% of proliferation. The method in brief:
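Proliferation inhibition was scored by MTT reduction to formazan (A570) in cells cultured in 5% FBS DMEM at 37 °C. Dose range spanned 1 nM to 10 μM, with EC50 defined as 50% inhibition.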

For test [2], the system named is SW480. The test is described as follows: Minimal effective concentration that elicits polyploidy, SW480. The class given is cell-based. The conditions noted are these: Homo sapiens, read-out: MECP: Minimal effective concentration that elicits polyploidy.

`COC(=O)c1cc(OC)cc(Oc2ncccc2-c2ccncc2)c1` [Compound 2, Methyl 3-([3,4′-bipyridin]-2-yloxy)-5-methoxybenzoate]: the EC50 in test [1] fell in the range of 1 to 1000 nM. Further, in test [2], the minimal effective concentration was in the range of 0.001 to 1 µM.

`COC(=O)c1cc(OC)cc(Oc2ncccc2-c2ccnc(N)n2)c1` [Compound 23, Methyl 3-((3-(2-aminopyrimidin-4-yl)pyridin-2-yl)oxy)-5-methoxybenzoate]: in test [1], the EC50 was 1 to 1000 nM. Besides, in test [2], the minimal effective concentration fell in the range of 0.001 to 1 µM.

The record behind these values is patent publication US20240262803A1, “COMPOUNDS, COMPOSITIONS AND METHODS OF TREATING DISORDERS” (Chungdu Anticancer Bioscience Ltd, priority 2021, published 2024).
